Data from patent US20200054646A1, “USE OF PHENOTHIAZINE DERIVATIVE IN THE TREATMENT OF INFECTIOUS PURPURA OR PURPURA FULMINANS” (priority 2016, published 2020).

Tests used:
[1] = test system: HDMECs colonized by N. meningitidis; experiment: Basement membrane remodelling: Gelatin-FITC matrix degradation by infected HDMEC; format: cell-based, human; conditions: infected cells, 150 μg/ml Gentamicin alone, 24 h post-infection
Method: (A) Experimental procedure: HDMECs grown on a fluorescent matrix (Gelatin-Fitc) were colonized by N. meningitidis for 6 h. They were then treated with 150 μg/ml gentamicin for 1 h, then 15 min with Trifluoperazine (50 μM) (or solvent alone as control) and incubated for further 15 h in the presence of 150 μg/ml gentamicin. (B) Fluorescence microscopy was used to visualize cells stained with labelled phalloidin and the fluorescent matrix. The presence of dark zones corresponds to zones of matrix degradation. (C) Quantification of the percentage of matrix degradation, using Image J software.
Plastic coverslips (13 mm diameter) (Nalgen #174950) were washed in ethanol 70%, dried then coated with poly-L-lysine 1 mg/ml for 20 min at room temperature. After one wash in sterile PBS, 0.5% Glutaraldehyde was added for 15 min at room temperature. After three washes in PBS, Gelatin-FITC (0.2 mg/ml Invitrogen #G13187) was added for 10 minutes at room temperature in the dark. Coverslip were then washed with sterile PBS and treated with 5 mg/ml sodium borohydride for 3 min. After three washes in sterile PBS, 10^5 HDMECs (PromoCell #C-12210) were seeded per well in their PromoCell culture medium and incubated overnight at 37° C. 5% CO2. The day after, cells were infected with Neisseria meningitidis Nm2C4.3, as above described. […] Quantifications were performed using ImageJ software (NIH).

[2] = test system: Nm2C4.3 microcolonies on HCMEC/D3; format: cell-based, Neisseria meningitidis
Method: HCMEC/D3, a well-established human brain endothelial cell line (Weksler et at, 2013) was grown in EBM-2 basal medium (Lonza, Walkersville, Md., USA) supplemented with 5% Fetal Bovine Serum “Gold”, 10 mM HEPES (PAA Laboratories GmbH, Pasching, Austria), 1% Penicillin-Streptomycin, 1% chemically defined lipid concentrate (Invitrogen Ltd, Paisley, UK), 1.4 μM hydrocortisone, 5 μg·ml^−1 ascorbic acid and 1ng·ml^−1 bFGF (Sigma-Aldrich, St. Louis, Mo.). Cells were grown on Thermanox coverslips coated with rat collagen I for 4 days at 37° C. in a humidified incubator in 5% CO2. Cells were then infected with a suspension of Nm2C4.3 (˜10^7 CFU/ml) in EBM2/FBS during 30 minutes to allow bacterial adhesion. Cells were then washed three times with medium to remove non-adherent bacteria and infection was pursued for 1 h 30: adherent bacteria grew at the endothelial cell surface and formed micro-colonies. Trifluoperazine was then added to obtain final concentrations of 10, 20, 30 and 40 μM. After incubation for 30 minutes, cells were washed and fixed in 4% Paraformaldehyde for 10 min, washed three times with PBS, and permeabilized with 0.1% Triton X-100 in PBS for 10 min. […] Quantification was done with ImageJ software (NIH). […]

[3] = test system: type IV pili of N. meningitidis 2C4.3 and isogenic PilT mutant; experiment: Aggregation and type IV pili of wild type and PilT mutant (phase-contrast and transmission electron microscopy); format: cell-based, Neisseria meningitidis
Method: N. meningitidis 2C4.3 wild type strain and the isogenic derivative mutant PilT ([…]PilT) were grown in liquid culture at 10^7 CFU/ml for 2 h to form bacterial aggregates and then treated with 50 μM Trifluoperazine. Time lapse phase-contrast video microscopy was performed to visualize the effect on bacterial aggregates over time. Images were taken at the indicated time points of the video.
N. meningitidis 2C4.3 wild type strain and the isogenic derivative mutant PilT ([…]PilT) were grown in liquid culture at 10^7 CFU/ml for 2 h to form bacterial aggregates and then treated with 50 μM Trifluoperazine for 15 minutes before analysis by transmission electron microscopy. Arrows point at bundles of type IV pili expressed at the bacterial surface.
N. meninigitidis 2C4.3 strain and the isogenic derivative mutant PilT, where the pilT gene was interrupted by an erythromycin-resistance cassette (Pujol et al., 1999), were grown in suspension in DMEM medium supplemented with 10% heat-inactivated fetal calf serum. PilT belongs to a highly conserved protein family homologous to AAA-type motor proteins and is proposed to cause the retraction of type IV pili by disassembling the pilin subunits at the base of the fiber (Morand et al., 2004). After 2 h of growth, Trifluoperazine (or control vehicle) was added at 50 μM for 20 min. The effect on bacterial aggregates were visualized over time using a phase-contrast microscope or the bacterial suspensions were fixed in 4% Paraformaldehyde for 10 min, centrifuged at 1000 rpm for 5 minutes and the bacterial pellets washed in PBS. After negative staining with 1% phosphotungstic acid, bacteria were analysed by transmission electron microscopy, using a JEOL 1011 microscope.

[4] = test system: Nm2C4.3 adhesion to human dermal microvascular endothelial cells (HDMECs); experiment: Meningococcal adhesion to endothelial cells after pretreatment of bacteria; format: cell-based, Neisseria meningitidis; conditions: bacteria pre-treated with 30 μM for 30 minutes
Method: Nm2C4.3 grown in suspension were pretreated in the absence or in the presence of 30 μM Trifluoperazine for 30 minutes before adhesion to human dermal microvascular endothelial cells (HDMECs) for 30 minutes. Infection was allowed to proceed for further 30, 60 or 90 minutes before fixation and immunostaining using anti-Nm2C4.3 antibody and Alexa Fluor 633 Phalloidin. (A) Representative fluorescence microscopy showing bacterial colony (white dots) formed at the surface of the endothelial cells. (B) Quantification of the bacterial colonization was performed using Image J software.

SMILES	degradation of the basement membrane [1]	concentration range of dose-dependent microcolony dispersion ([2]; 30 min, HCMEC/D3) [µM]	dispersion of microcolonies on human brain endothelial cells ([2]; treatment for 30 min)	surface expression of type IV pili, PilT mutant (TEM) ([3]; 50 μM)	type IV pili on bacterial surface, wild type 2C4.3 (TEM) ([3]; 50 μM for 30 minutes)	effect on aggregation of PilT mutant strain ([3]; 50 μM, PilT mutant unable to retract type IV pili)	adhesion / colony formation at the endothelial cell surface by pre-treated bacteria [4]
CN[C@@H]1[C@@H](O)C(O[C@@H]2[C@@H](O)[C@H](O[C@H]3O[C@H]([C@@H](C)NC)CC[C@H]3N)[C@@H](N)C[C@H]2N)OC[C@]1(C)O (stereo partly drawn) [Gentamicin, (3R,4R,5R)-2-{[(1S,2S,3R,4S,6R)-4,6-diamino-3-{[(2R,3R,6S)-3-amino-6-[(1R)-1-(methylamino)ethyl]oxan-2-yl]oxy}-2-hydroxycyclohexyl]oxy}-5-methyl-4-(methylamino)oxane-3,5-diol]	about 20%	–	–	–	–	–	–
CN1CCN(CCCN2c3ccccc3Sc3ccc(C(F)(F)F)cc32)CC1 [Trifluoperazine]	–	10 to 40	induced their dispersion	did not affect	no longer observed	no effect	did no longer adhere
